Among the test systems are ACHN; DLD-1; DMS-114; DMS-273; HOP-18; HOP-92; KM-20L2; LXFL 529; M14; M19-MEL; Malme-3M; NCI-H23; SNB-78; SR; TK-10; XF498; A498; MCF7; NCI/ADR-RES; MDA-MB-231.
Assay in all cases: NCI-60 cell line screen, 48 h

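All cell lines were grown in 96-well plates and treated with compound for 48 hours. Abbreviation: GI50, concentration required for 50% inhibition of growth.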 The source made the active and inactive calls. Cut-off read from the data, not from the text of the source: active = GI50 up to about 1.1 µM and inactive = higher.

Consider `CCCCN1C=CN2c3nc4cc(C)c(C)cc4n3C(C(=O)OC)=C(C(=O)OC)C12` (stereo not drawn), for which the GI50 in the test on ACHN, in the test with DLD-1, with DMS-114, with DMS-273, with HOP-18 and in the test on HOP-92 was > 100 µM (inactive) each time. Also, the GI50 with KM-20L2, in the test with LXFL 529, in the test on M14, with M19-MEL, in the test with Malme-3M and in the test with NCI-H23 was > 100 µM (inactive) throughout. For the same compound, the GI50 with SNB-78, with SR, in the test with TK-10 and in the test with XF498 was > 100 µM (inactive) each time.

On to `CC12CCC3C(CCC4(O)C=CCCC34C=O)C1(O)CC(O)C2c1ccc(=O)oc1` (stereo not drawn), for which the GI50 is 0.054 µM (active) in the test on A498; 0.0578 µM (active) in the test on DLD-1; < 0.05 µM (active) in the test with DMS-114; < 0.05 µM (active) in the test with DMS-273; 0.0679 µM (active) with HOP-18; 0.105 µM (active) in the test with HOP-92. Besides, the GI50 was 0.0668 µM (active) in the test with KM-20L2; 0.0851 µM (active) with M19-MEL; 0.0773 µM (active) in the test with MCF7; 0.0521 µM (active) in the test on Malme-3M; 0.0512 µM (active) in the test on NCI-H23; 0.0679 µM (active) in the test on NCI/ADR-RES. For the same compound, the GI50 was 0.0593 µM (active) in the test on SNB-78 and 0.0873 µM (active) in the test with XF498.

For `CN(C)CCNc1c([N+](=O)[O-])cc2c3c(cccc13)C(=O)N(CCN(C)C)C2=O`, the GI50 is 1.67 µM (inactive) with A498; 1.52 µM (inactive) in the test on DLD-1; 1.27 µM (inactive) with DMS-114; 1.07 µM (active) in the test on DMS-273; 1.52 µM (inactive) with HOP-18; 0.587 µM (active) in the test with HOP-92. For the same compound, the GI50 was 1.21 µM (inactive) with KM-20L2; 1.6 µM (inactive) in the test on M19-MEL; 1.22 µM (inactive) with MCF7; 0.635 µM (active) in the test with Malme-3M; 1.78 µM (inactive) in the test on NCI-H23; 1.54 µM (inactive) in the test on NCI/ADR-RES. The GI50 is 1.61 µM (inactive) in the test with SNB-78 and 1.55 µM (inactive) in the test with XF498.

In the case of `CC(C)=CCc1c(O)ccc2c1OC1c3ccc(O)c(CC=C(C)C)c3OCC21` (stereo not drawn), the GI50 is 11.9 µM (inactive) with A498; 5.19 µM (inactive) in the test on DLD-1; 11.4 µM (inactive) in the test with DMS-114; 6.4 µM (inactive) with DMS-273; 17.6 µM (inactive) in the test on HOP-18; > 100 µM (inactive) in the test with HOP-92. In addition, the GI50 was 18.7 µM (inactive) in the test on KM-20L2; 11.4 µM (inactive) with M19-MEL; 8.89 µM (inactive) with MCF7; 17 µM (inactive) in the test on Malme-3M; > 38.8 µM (inactive) in the test on NCI-H23; 8.09 µM (inactive) in the test with NCI/ADR-RES. The results for the GI50 with SNB-78 and in the test with XF498 were 12.1 µM (inactive) and 17.8 µM (inactive), respectively.

On to `COC(=O)C1=C(OC(=O)/C(=C/c2ccc(Cl)cc2)c2ccc(Cl)cc2)C(C(=O)OC)[C@]2(O)[C@@H](C(=O)OC)[C@H]1C[C@@H](c1ccccc1)[C@@H]2C(=O)OC` (stereo partly drawn), for which the GI50 is > 100 µM (inactive) in the test with ACHN; 30.1 µM (inactive) with M14; 50.6 µM (inactive) with MDA-MB-231; > 100 µM (inactive) in the test with NCI-H23; > 100 µM (inactive) in the test on NCI/ADR-RES; > 100 µM (inactive) in the test on TK-10.

Regarding `O=C(O)CCC(NC(=O)c1ccc(Nc2cnc3cc(C(F)(F)F)ccc3n2)cc1)C(=O)O` (stereo not drawn), the GI50 in the test with A498, with DLD-1, in the test with DMS-114, in the test on DMS-273, in the test on HOP-18 and with HOP-92 was > 100 µM (inactive) throughout. For the same compound, the GI50 in the test with KM-20L2, with MCF7, in the test with Malme-3M, in the test on NCI-H23, with NCI/ADR-RES and in the test with SNB-78 was > 100 µM (inactive) each time. Also, the GI50 in the test on XF498 was > 100 µM (inactive).

Regarding `O=C1C=CC[C@H]2O[C@@H](COC(=O)Cc3ccccc3)C[C@H]2O1`, the GI50 in the test with A498 is > 100 µM (inactive); in the test with ACHN, 32.1 µM (inactive); with HOP-92 it was 28.1 µM (inactive); in the test on M14, 31.7 µM (inactive); with MCF7 it was 44.3 µM (inactive); in the test with MDA-MB-231, 63.7 µM (inactive). In addition, the GI50 in the test with NCI-H23 was 20.9 µM (inactive); in the test on NCI/ADR-RES it was 38 µM (inactive); in the test on SR it was 32 µM (inactive); with TK-10 it was 25.9 µM (inactive).

As for `Cc1c(C2=NN=C(/N=N/c3c(O)cccc3O)/C2=C/c2ccccc2)c(=O)n(-c2ccccc2)n1C`, the GI50 in the test on A498, in the test on DLD-1, in the test with DMS-114, in the test on DMS-273, in the test with HOP-18 and in the test on HOP-92 was > 100 µM (inactive) throughout. Also, the GI50 in the test with KM-20L2, with M19-MEL, in the test with MCF7, in the test on Malme-3M, with NCI-H23 and with NCI/ADR-RES was > 100 µM (inactive) in each case. In addition, the GI50 in the test with SNB-78 and in the test on XF498 was > 100 µM (inactive) throughout.

For `COc1cc(CCN(C)C)cc(OC)c1OC`, the GI50 in the test on A498, with ACHN, in the test on HOP-92, in the test with M14, in the test on MCF7 and in the test on MDA-MB-231 was > 100 µM (inactive) in each case. Further, the GI50 in the test with NCI-H23, in the test on NCI/ADR-RES, in the test with SR and in the test on TK-10 was > 100 µM (inactive) throughout.

`CC1SC(c2ccccc2)N(Nc2c3ccccc3nc3ccccc23)C1=O` (stereo not drawn): the GI50 was > 100 µM (inactive) in the test with ACHN; 59.2 µM (inactive) with DLD-1; 45.5 µM (inactive) with DMS-114; > 100 µM (inactive) in the test on DMS-273; > 100 µM (inactive) with KM-20L2; 43.3 µM (inactive) in the test with LXFL 529. For the same compound, the GI50 in the test with M14 is > 100 µM (inactive); with M19-MEL it was > 100 µM (inactive); with Malme-3M, > 100 µM (inactive); with NCI-H23, 50.4 µM (inactive); in the test with SNB-78 it was > 100 µM (inactive); in the test with SR it was 42.6 µM (inactive). Also, the GI50 with XF498 was > 100 µM (inactive).

In the case of `O=C1c2cccc3c2C(=O)c2c(cccc21)OCCOCCOCCOCCO3`, the GI50 in the test on ACHN was 78.5 µM (inactive); in the test on DLD-1, > 100 µM (inactive); in the test with DMS-114, 86.1 µM (inactive); in the test on DMS-273, > 100 µM (inactive); in the test on HOP-18, > 100 µM (inactive); with KM-20L2, > 100 µM (inactive). The GI50 with LXFL 529, in the test on M14, in the test with M19-MEL, with Malme-3M, in the test on NCI-H23 and in the test on SNB-78 was > 100 µM (inactive) throughout. Further, the GI50 is 14.2 µM (inactive) with SR and > 100 µM (inactive) in the test on TK-10.

For `CC1(CO)C(O)CCC2(C)C1CCC1CC3CC12CCC3(O)CO` (stereo not drawn), the GI50 in the test with A498 was 7.6 µM (inactive); in the test on DLD-1, > 100 µM (inactive); in the test with DMS-114 it was 2.34 µM (inactive); with DMS-273 it was 0.44 µM (active); in the test on HOP-18, 18.6 µM (inactive); in the test on HOP-92 it was 24.8 µM (inactive). For the same compound, the GI50 was 26.2 µM (inactive) in the test with M19-MEL; 5.04 µM (inactive) with MCF7; > 76.2 µM (inactive) in the test with Malme-3M; 4.91 µM (inactive) with NCI-H23; 6.67 µM (inactive) in the test with NCI/ADR-RES; > 100 µM (inactive) in the test on SNB-78. Further, the GI50 with XF498 is 64.7 µM (inactive).

On to `CCCCCCCCCCCCCCCCCC(=O)OCC1OC(OC)C(NC(=O)N(CCCl)N=O)C(O)C1O` (stereo not drawn), for which the GI50 in the test on ACHN is 15.7 µM (inactive); in the test on DLD-1 it was 28.1 µM (inactive); in the test with DMS-273, 16 µM (inactive); with HOP-18, 32.6 µM (inactive); with KM-20L2, > 10 µM (inactive); in the test with LXFL 529 it was 17.3 µM (inactive). The GI50 was 27.8 µM (inactive) with M14; 71.4 µM (inactive) in the test on M19-MEL; 26.1 µM (inactive) with Malme-3M; 16.4 µM (inactive) with NCI-H23; 40.4 µM (inactive) in the test with SNB-78; 9.04 µM (inactive) in the test on SR. Also, the GI50 in the test with TK-10 is 38.3 µM (inactive); with XF498 it was 20.7 µM (inactive).

As to `CC1(C)S[C@@H]2[C@H](NC(=O)CCC[C@@H](N)C(=O)O)C(=O)N2[C@H]1C(=O)O` [ADICILLIN], the GI50 in the test with A498 was > 44.7 µM (inactive); in the test on DLD-1, > 50 µM (inactive); in the test on DMS-273, > 50 µM (inactive); in the test with HOP-18, > 50 µM (inactive); in the test with HOP-92 it was > 50 µM (inactive); in the test on KM-20L2 it was > 24.8 µM (inactive). In addition, the GI50 is > 50 µM (inactive) with M19-MEL; > 50 µM (inactive) in the test with MCF7; > 50 µM (inactive) in the test with Malme-3M; > 50 µM (inactive) in the test on NCI-H23; > 31.6 µM (inactive) in the test with NCI/ADR-RES; > 50 µM (inactive) in the test on SNB-78. In addition, the GI50 in the test with XF498 was 24.1 µM (inactive).

With `C/C=C/c1cc(=O)c([C@@H]2OC(=O)c3cc(OC)cc(OC)c32)co1` [VERMISTATIN], the GI50 in the test on ACHN was 45.3 µM (inactive); in the test on DMS-114, 21.7 µM (inactive); in the test with HOP-92, 49 µM (inactive); in the test with KM-20L2, 67.5 µM (inactive); in the test on LXFL 529, 24.5 µM (inactive); in the test with M14 it was 58.7 µM (inactive). Further, the GI50 was 35.1 µM (inactive) in the test with M19-MEL, 29.6 µM (inactive) in the test on NCI-H23, 27.6 µM (inactive) with SR and 57.5 µM (inactive) with TK-10.
